Columns and labels:
[1] = target: recombinant human FGFR1 catalytic domain (amino acids 308-731) (Homo sapiens (Human), UniProt P11362); test: FGFR1 enzyme activity assay (LanthaScreen TR-FRET); format: biochemical; conditions: 20 min incubation at 22° C., average of multiple determinations if made, read-out: FGFR1 Enz FRET IC50
Outline: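 His-tagged FGFR1 kinase domain with 100 nM Alexa Fluor 647-poly-GT peptide and ATP in pH 7.5 HEPES/MgCl2 buffer with 2% DMSO, 20 min at 22 °C. Quenched with EDTA plus 2 nM Eu-PY20 antibody and read after 60 min. IC50 comes from a 4-parameter fit of percent of control.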

dephosphorylated FGFR2 = dephosphorylated FGFR2 (Homo sapiens (Human), UniProt P21802); test: FGFR enzyme binding assay (HTRF tracer displacement), FGFR2; conditions: 5 nM dephosphorylated FGFR2, average of multiple determinations if made
Chain of dephosphorylated FGFR2 (P21802 22-821): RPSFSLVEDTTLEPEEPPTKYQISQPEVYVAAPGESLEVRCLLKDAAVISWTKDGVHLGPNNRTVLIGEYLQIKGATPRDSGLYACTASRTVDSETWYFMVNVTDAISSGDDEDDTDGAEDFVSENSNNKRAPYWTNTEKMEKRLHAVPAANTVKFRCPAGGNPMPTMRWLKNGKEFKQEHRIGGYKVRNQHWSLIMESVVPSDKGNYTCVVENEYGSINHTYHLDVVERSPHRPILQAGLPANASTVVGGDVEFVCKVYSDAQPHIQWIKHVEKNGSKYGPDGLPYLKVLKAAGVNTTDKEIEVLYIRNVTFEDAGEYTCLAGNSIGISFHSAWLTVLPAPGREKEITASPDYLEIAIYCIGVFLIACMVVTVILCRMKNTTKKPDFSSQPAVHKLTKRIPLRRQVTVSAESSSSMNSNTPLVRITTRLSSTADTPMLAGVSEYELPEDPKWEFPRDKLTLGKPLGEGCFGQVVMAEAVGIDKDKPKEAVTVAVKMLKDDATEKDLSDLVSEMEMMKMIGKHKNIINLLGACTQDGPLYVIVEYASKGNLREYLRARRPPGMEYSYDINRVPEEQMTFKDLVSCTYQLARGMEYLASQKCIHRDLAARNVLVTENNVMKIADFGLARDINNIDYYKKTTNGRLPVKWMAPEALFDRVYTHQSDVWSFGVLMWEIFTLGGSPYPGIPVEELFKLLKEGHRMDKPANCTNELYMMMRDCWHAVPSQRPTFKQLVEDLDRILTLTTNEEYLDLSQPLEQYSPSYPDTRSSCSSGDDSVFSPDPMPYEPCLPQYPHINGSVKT
Method: The potency of compounds inhibiting human isoforms of FGFR kinase was determined using Life Technologies' Homogeneous Time Resolved Fluorescence (HTRF)-based binding assay technology. […] After a 60 minute incubation at 22° C., the extent of tracer displacement was determined using a PerkinElmer EnVision multimode plate reader via HTRF dual wavelength detection, and the percent of control (POC) was calculated using a ratiometric emission factor. One hundred POC was determined using no test compound, and 0 POC was determined in the presence of 1 μM of an appropriate control inhibitor.

[2] = target: recombinant human FGFR3 (amino acids R397-T806) (Homo sapiens (Human), UniProt P22607); test: FGFR3 enzyme activity assay (LanthaScreen TR-FRET); format: biochemical; conditions: 25 μM ATP, 10 min incubation at 22° C., average of multiple determinations if made, read-out: FGFR3 Enz FRET IC50
Chain of recombinant human FGFR3 (amino acids R397-T806) (P22607 397-806): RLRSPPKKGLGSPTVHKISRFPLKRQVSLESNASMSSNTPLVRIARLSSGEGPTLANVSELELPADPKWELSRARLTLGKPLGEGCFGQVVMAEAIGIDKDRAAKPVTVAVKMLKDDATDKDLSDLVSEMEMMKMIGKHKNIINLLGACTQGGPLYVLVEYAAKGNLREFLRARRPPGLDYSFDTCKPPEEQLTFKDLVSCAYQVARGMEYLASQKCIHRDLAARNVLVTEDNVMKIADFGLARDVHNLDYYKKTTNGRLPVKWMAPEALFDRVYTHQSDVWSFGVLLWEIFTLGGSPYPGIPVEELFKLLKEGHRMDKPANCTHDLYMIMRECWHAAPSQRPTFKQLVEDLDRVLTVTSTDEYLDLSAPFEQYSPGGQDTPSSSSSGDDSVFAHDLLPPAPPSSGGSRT
Outline: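 GST-HIS6-tagged human FGFR3 (R397-T806) was reacted with 100 nM Alexa Fluor 647-Poly-GT substrate and 25 μM ATP plus compound in HEPES/MgCl2/Triton buffer, pH 7.5, 2% DMSO, for 10 min at 22 °C.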

[3] = target: recombinant human FGFR2 cytoplasmic domain (amino acids 403-822) (Homo sapiens (Human), UniProt P21802); test: FGFR2 enzyme activity assay (LanthaScreen TR-FRET); format: biochemical; conditions: 15 μM ATP, 20 min incubation at 22° C., average of multiple determinations if made, read-out: FGFR2 Enz FRET IC50
Chain of recombinant human FGFR2 cytoplasmic domain (amino acids 403-822) (P21802 402-821): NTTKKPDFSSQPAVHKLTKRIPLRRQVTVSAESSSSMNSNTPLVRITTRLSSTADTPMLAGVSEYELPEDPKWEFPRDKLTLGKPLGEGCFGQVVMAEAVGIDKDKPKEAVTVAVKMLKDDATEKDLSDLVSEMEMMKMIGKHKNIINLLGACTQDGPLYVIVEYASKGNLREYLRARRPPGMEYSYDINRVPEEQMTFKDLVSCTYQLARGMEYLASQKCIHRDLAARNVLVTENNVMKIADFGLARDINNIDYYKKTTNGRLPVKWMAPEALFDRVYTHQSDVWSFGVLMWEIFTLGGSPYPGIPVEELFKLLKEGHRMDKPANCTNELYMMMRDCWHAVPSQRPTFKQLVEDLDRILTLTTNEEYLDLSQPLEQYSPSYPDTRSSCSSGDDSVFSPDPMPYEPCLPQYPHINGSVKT
Outline: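 His-tagged FGFR2 cytoplasmic domain ([…]) with 100 nM Alexa Fluor 647-poly-GT peptide and 15 μM ATP in HEPES/MgCl2/Triton buffer, pH 7.5, 2% DMSO, 20 min at 22 °C. EDTA-quenched, Eu-PY20 antibody added, TR-FRET read after 60 min.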

Chain of recombinant human FGFR1 catalytic domain (amino acids 308-731) (P11362 other isoform, or with tags, fused parts or gaps): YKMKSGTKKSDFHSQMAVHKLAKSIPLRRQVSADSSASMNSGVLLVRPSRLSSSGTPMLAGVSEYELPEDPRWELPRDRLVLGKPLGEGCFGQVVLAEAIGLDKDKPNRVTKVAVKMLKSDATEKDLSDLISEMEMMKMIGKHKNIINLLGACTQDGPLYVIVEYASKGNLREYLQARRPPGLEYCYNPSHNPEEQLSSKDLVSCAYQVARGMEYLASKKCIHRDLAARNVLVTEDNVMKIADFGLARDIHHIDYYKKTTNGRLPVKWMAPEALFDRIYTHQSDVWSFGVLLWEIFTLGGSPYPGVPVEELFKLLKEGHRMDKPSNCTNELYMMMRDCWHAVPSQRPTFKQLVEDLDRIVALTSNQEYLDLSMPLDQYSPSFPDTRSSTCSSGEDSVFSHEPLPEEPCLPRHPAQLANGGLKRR

IC50 [1] [nM]	IC50 (dephosphorylated FGFR2) [nM]	IC50 [2] [nM]	IC50 [3] [nM]	Compound
334	60	39	219	C=CC(=O)N1CC(CN2CCC(n3ncc(-c4cc(OC)c5c(Cl)cnn5c4)c3C)CC2)(OC)C1 [Example 119, 1-(3-((4-(4-(3-chloro-4-methoxypyrazolo[1,5-a]pyridin-6-yl)-5-methyl-1H-pyrazol-1-yl)piperidin-1-yl)methyl)-3-methoxyazetidin-1-yl)prop-2-en-1-one]
338	84	72	39	C=CC(=O)N1CC(CN2CCC(n3ncc(-c4cc(OC)c5c(Cl)cnn5c4)c3C)CC2)C1(C)C (stereo not drawn) [Example 120, 1-(3-((4-(4-(3-chloro-4-methoxypyrazolo[1,5-a]pyridin-6-yl)-5-methyl-1H-pyrazol-1-yl)piperidin-1-yl)methyl)-2,2-dimethylazetidin-1-yl)prop-2-en-1-one]
28	12	9	13	C=CC(=O)N1CC(F)(C(=O)N2CCC(n3cc(-c4cc(OC)c5c(Cl)cnn5c4)cn3)CC2)C1 [Example 121, 1-(3-(4-(4-(3-chloro-4-methoxypyrazolo[1,5-a]pyridin-6-yl)-1H-pyrazol-1-yl)piperidine-1-carbonyl)-3-fluoroazetidin-1-yl)prop-2-en-1-one]
20	13	6	4	C=CC(=O)N1CCN(C(=O)N2CCC(n3cc(-c4cc(OC)c5c(C#N)cnn5c4)cn3)CC2)C[C@@H]1CC#N [Example 135, (S)-6-(1-(1-(4-acryloyl-3-(cyanomethyl)piperazine-1-carbonyl)piperidin-4-yl)-1H-pyrazol-4-yl)-4-methoxypyrazolo[1,5-a]pyridine-3-carbonitrile]
12	15	5	4	COc1cc(-c2cnn(C3CCN(C(=O)C4CN(C(=O)C5=CCC5)C4)CC3)c2)cn2ncc(C#N)c12 [Example 137, 6-(1-(1-(1-(cyclobut-1-ene-1-carbonyl)azetidine-3-carbonyl)piperidin-4-yl)-1H-pyrazol-4-yl)-4-methoxypyrazolo[1,5-a]pyridine-3-carbonitrile]
43	18	6	5	COc1cc(-c2cnn(C3CCN(C(=O)C4CN(C(=O)/C=C/CO)C4)CC3)c2)cn2ncc(C#N)c12 [Example 141, (E)-6-(1-(1-(1-(4-hydroxybut-2-enoyl)azetidine-3-carbonyl)piperidin-4-yl)-1H-pyrazol-4-yl)-4-methoxypyrazolo [1,5-a]pyridine-3-carbonitrile]
86	38	17	9	C=CC(=O)N1CC(CN2CCC(n3ncc(-c4cc(OC)c5c(C#N)cnn5c4)c3C)CC2)C1(C)C (stereo not drawn) [Example 151, 6-(1-(1-((1-acryloyl-2,2-dimethylazetidin-3-yl)methyl)piperidin-4-yl)-5-methyl-1H-pyrazol-4-yl)-4-methoxypyrazolo [1,5-a]pyridine-3-carbonitrile]
99	49	16	35	COc1cc(-c2cnn(C3CCN(C(=O)C4CN(C(=O)/C=C/CN(C)C)C4)CC3)c2C)cn2ncc(C#N)c12 [Example 152, (E)-6-(1-(1-(1-(4-(dimethylamino)but-2-enoyl)azetidine-3-carbonyl)piperidin-4-yl)-5-methyl-1H-pyrazol-4-yl)-4-methoxypyrazolo [1,5-a]pyridine-3-carbonitrile]
39	11	5	4	COc1cc(-c2cnn(C3CCN(C(=O)C4(F)CN(C(=O)/C=C/CN(C)C)C4)CC3)c2C)cn2ncc(C#N)c12 [Example 153, (E)-6-(1-(1-(1-(4-(dimethylamino)but-2-enoyl)-3-fluoroazetidine-3-carbonyl)piperidin-4-yl)-5-methyl-1H-pyrazol-4-yl)-4-methoxypyrazolo [1,5-a]pyridine-3-carbonitrile]
335	69	19	16	COC/C=C/C(=O)N1CC(F)(C(=O)N2CCC(n3ncc(-c4cc(OC)c5c(C#N)cnn5c4)c3C)CC2)C1 [Example 154, (E)-6-(1-(1-(3-fluoro-1-(4-methoxybut-2-enoyl)azetidine-3-carbonyl)piperidin-4-yl)-5-methyl-1H-pyrazol-4-yl)-4-methoxypyrazolo [1,5-a]pyridine-3-carbonitrile]
255	51	11	114	COc1cc(-c2cnn(C3CCN(C(=O)C4(F)CN(C(=O)/C=C/C(F)(F)F)C4)CC3)c2C)cn2ncc(C#N)c12 [Example 155, (E)-6-(1-(1-(3-fluoro-1-(4,4,4-trifluorobut-2-enoyl)azetidine-3-carbonyl)piperidin-4-yl)-5-methyl-1H-pyrazol-4-yl)-4-methoxypyrazolo [1,5-a]pyridine-3-carbonitrile]
375	26	24	84	CC#CC(=O)N1CC(F)(C(=O)N2CCC(n3ncc(-c4cc(OC)c5c(C#N)cnn5c4)c3C)CC2)C1 [Example 156, 6-(1-(1-(1-(but-2-ynoyl)-3-fluoroazetidine-3-carbonyl)piperidin-4-yl)-5-methyl-1H-pyrazol-4-yl)-4-methoxypyrazolo [1,5-a]pyridine-3-carbonitrile]
90	6	18	30	COc1cc(-c2cnn(C3CCN(C(=O)C4(C)CN(C(=O)/C=C/CN(C)C)C4)CC3)c2C)cn2ncc(C#N)c12 [Example 157, (E)-6-(1-(1-(1-(4-(dimethylamino)but-2-enoyl)-3-methylazetidine-3-carbonyl)piperidin-4-yl)-5-methyl-1H-pyrazol-4-yl)-4-methoxypyrazolo [1,5-a]pyridine-3-carbonitrile]
77	8	8	30	COc1cc(-c2cnn(C3CCN(C(=O)C4(OC)CN(C(=O)/C=C/CN(C)C)C4)CC3)c2C)cn2ncc(C#N)c12 [Example 158, (E)-6-(1-(1-(1-(4-(dimethylamino)but-2-enoyl)-3-methoxyazetidine-3-carbonyl)piperidin-4-yl)-5-methyl-1H-pyrazol-4-yl)-4-methoxypyrazolo [1,5-a]pyridine-3-carbonitrile]
70	24	10	7	COc1cc(-c2cnn(C3CCN(CC4(OC)CN(C(=O)/C=C/CN(C)C)C4)CC3)c2C)cn2ncc(C#N)c12 [Example 159, (E)-6-(1-(1-((1-(4-(dimethylamino)but-2-enoyl)-3-methoxyazetidin-3-yl)methyl)piperidin-4-yl)-5-methyl-1H-pyrazol-4-yl)-4-methoxypyrazolo [1,5-a]pyridine-3-carbonitrile]
248	33	34	179	COc1cc(-c2cnn(C3CN(C(=O)C4(F)CN(C(=O)/C=C/CN(C)C)C4)C3)c2C)cn2ncc(C#N)c12 [Example 160, (E)-6-(1-(1-(1-(4-(dimethylamino)but-2-enoyl)-3-fluoroazetidine-3-carbonyl)azetidin-3-yl)-5-methyl-1H-pyrazol-4-yl)-4-methoxypyrazolo [1,5-a]pyridine-3-carbonitrile]
154	44	20	31	COc1cc(-c2c(C)nn(C3CCN(C(=O)C4(F)CN(C(=O)/C=C/CN(C)C)C4)CC3)c2C)cn2ncc(C#N)c12 [Example 161, (E)-6-(1-(1-(1-(4-(dimethylamino)but-2-enoyl)-3-fluoroazetidine-3-carbonyl)piperidin-4-yl)-3,5-dimethyl-1H-pyrazol-4-yl)-4-methoxypyrazolo [1,5-a]pyridine-3-carbonitrile]
311	462	99	69	CCc1c(-c2cc(OC)c3c(C#N)cnn3c2)cnn1C1CCN(C(=O)C2(F)CN(C(=O)/C=C/CN(C)C)C2)CC1 [Example 162, (E)-6-(1-(1-(1-(4-(dimethylamino)but-2-enoyl)-3-fluoroazetidine-3-carbonyl)piperidin-4-yl)-5-ethyl-1H-pyrazol-4-yl)-4-methoxypyrazolo [1,5-a]pyridine-3-carbonitrile]
